The CheMixHub ionic liquid set
± gives the uncertainty stated by the source.

Assay: xn = mol fraction of the nth substance listed

CC(=O)[O-].CC[n+]1ccn(C)c1 + O
Settings	electrical conductivity [S/m]	viscosity [mPa·s]
293.1 K, 101 kPa, x2 = 0.517	–	59.4 ± 3
293.1 K, 101 kPa, x2 = 0.578	–	51.1 ± 2.3
293.1 K, 101 kPa, x2 = 0.705	–	32.7 ± 1.5
293.15 K, 100 kPa, x1 = 0.7987	0.314 ± 0.0063	–
293.15 K, 100 kPa, x1 = 1	0.223 ± 0.0045	–
293.15 K, 100 kPa, x2 = 0.2088	–	138.9 ± 6.2
293.15 K, 101.3 kPa, x2 = 0	0.243 ± 0.001	–
293.15 K, 101.3 kPa, x2 = 0.0774	0.327 ± 0.001	–
293.15 K, 101.3 kPa, x2 = 0.1429	0.562 ± 0.001	–
293.15 K, 101.3 kPa, x2 = 0.3065	1.016 ± 0.001	–
293.15 K, 101.3 kPa, x2 = 0.4381	1.537 ± 0.001	–
293.15 K, 101.3 kPa, x2 = 0.5278	2.03 ± 0.001	–
293.15 K, 101.3 kPa, x2 = 0.7257	4.136 ± 0.001	–
293.15 K, 101.3 kPa, x2 = 0.8083	5.417 ± 0.001	–
293.15 K, 101.3 kPa, x2 = 0.8554	6.014 ± 0.001	–
293.15 K, 101.3 kPa, x2 = 0.8891	5.902 ± 0.001	–
293.15 K, 101.3 kPa, x2 = 0.9279	2.979 ± 0.001	–
293.15 K, 101.3 kPa, x2 = 0.9308	2.707 ± 0.001	–
293.15 K, 101.3 kPa, x2 = 0.9425	1.866 ± 0.001	–
293.15 K, 101.3 kPa, x2 = 0.9559	1.121 ± 0.001	–
293.15 K, 101.3 kPa, x2 = 0.9625	0.8 ± 0.001	–
298.15 K, 101 kPa, x2 = 0	–	132.9 ± 6
298.15 K, 101 kPa, x2 = 0.0992	–	109.7 ± 4.8
298.15 K, 101 kPa, x2 = 0.266	–	85 ± 3
298.15 K, 101 kPa, x2 = 0.4207	–	59.5 ± 2.4
298.15 K, 101 kPa, x2 = 0.5408	–	44.4 ± 1.8
298.15 K, 101 kPa, x2 = 0.6135	–	35.9 ± 1.5
303.15 K, 100 kPa, x1 = 0.2003	2.37 ± 0.048	–
303.15 K, 100 kPa, x1 = 0.7987	0.527 ± 0.011	–
303.15 K, 100 kPa, x2 = 0.4	–	52.7 ± 1.6
303.15 K, 101 kPa, x2 = 0.132	–	84 ± 3
313.15 K, 100 kPa, x2 = 0.2088	–	47.2 ± 1.5
313.15 K, 100 kPa, x2 = 0.4	–	33.9 ± 1.1
313.15 K, 101 kPa, x2 = 0.188	–	46.7 ± 1.4
313.15 K, 101 kPa, x2 = 0.5408	–	23.49 ± 0.96
323.15 K, 100 kPa, x1 = 0.5984	1.63 ± 0.033	–
323.15 K, 100 kPa, x2 = 0.2088	–	30.12 ± 0.97
323.15 K, 101 kPa, x2 = 0.132	–	33.1 ± 1.2
328.15 K, 101 kPa, x2 = 0.0992	–	27 ± 1.1
328.15 K, 101 kPa, x2 = 0.4207	–	17.5 ± 0.72
328.15 K, 101 kPa, x2 = 0.6805	–	9.43 ± 0.38
328.15 K, 101 kPa, x2 = 0.8134	–	5.3 ± 0.22
333.1 K, 101 kPa, x2 = 0.517	–	12.27 ± 0.7
333.1 K, 101 kPa, x2 = 0.578	–	11 ± 0.61
333.15 K, 100 kPa, x1 = 0.9481	1.31 ± 0.026	–
333.15 K, 100 kPa, x1 = 1	1.31 ± 0.026	–
333.15 K, 101 kPa, x2 = 0.188	–	21.4 ± 0.6
333.15 K, 101 kPa, x2 = 0.266	–	19.5 ± 0.6
343.15 K, 100 kPa, x1 = 1	1.75 ± 0.035	–
343.15 K, 100 kPa, x2 = 0.2088	–	15.07 ± 0.48
343.15 K, 100 kPa, x2 = 0.4	–	12.24 ± 0.39
343.15 K, 100 kPa, x2 = 0.8023	–	3.8 ± 0.12
343.15 K, 101 kPa, x2 = 0.222	–	14.52 ± 0.61
343.15 K, 101 kPa, x2 = 0.5408	–	8.98 ± 0.37
343.15 K, 101 kPa, x2 = 0.6805	–	6.22 ± 0.25
353.15 K, 101 kPa, x2 = 0.102	–	12.96 ± 0.4
353.15 K, 101 kPa, x2 = 0.132	–	12.58 ± 0.41
353.15 K, 101 kPa, x2 = 0.188	–	11.89 ± 0.34
353.15 K, 101 kPa, x2 = 0.355	–	10.11 ± 0.28
363.15 K, 101 kPa, x2 = 0.072	–	10.28 ± 0.33
363.15 K, 101 kPa, x2 = 0.102	–	10.09 ± 0.31
363.15 K, 101 kPa, x2 = 0.132	–	9.82 ± 0.32
373.15 K, 101 kPa, x2 = 0.188	–	7.48 ± 0.22

C[C@H](N)C(=O)[O-].C[N+](C)(C)CCO + O
Settings	viscosity [mPa·s]
287.97 K, 100 kPa, x1 = 0.2939	177 ± 43
288.1 K, 100 kPa, x1 = 1	5100 ± 1300
289.25 K, 100 kPa, x1 = 0.5975	970 ± 240
289.31 K, 100 kPa, x1 = 0.692	1467 ± 360
289.96 K, 100 kPa, x1 = 1	3700 ± 1000
290.48 K, 100 kPa, x1 = 0.2939	153 ± 37
290.53 K, 100 kPa, x1 = 0.7994	1752 ± 440
292.92 K, 100 kPa, x1 = 0.097	8.7 ± 2.1
292.92 K, 100 kPa, x1 = 0.4948	490 ± 120
292.92 K, 100 kPa, x1 = 0.5975	710 ± 180
292.92 K, 100 kPa, x1 = 0.692	1030 ± 250
294.1 K, 100 kPa, x1 = 0.097	8.4 ± 2
294.1 K, 100 kPa, x1 = 0.4948	450 ± 110
294.1 K, 100 kPa, x1 = 0.692	930 ± 230
294.1 K, 100 kPa, x1 = 0.7994	1250 ± 310
295.27 K, 100 kPa, x1 = 0.7994	1129 ± 280
296.45 K, 100 kPa, x1 = 0.4948	377 ± 92
296.45 K, 100 kPa, x1 = 0.7994	1016 ± 250
297.63 K, 100 kPa, x1 = 0.097	7.4 ± 1.8
298.1 K, 101.3 kPa, x1 = 0.2727	33 ± 6.6
298.81 K, 100 kPa, x1 = 0.2939	90 ± 22
298.81 K, 100 kPa, x1 = 0.7994	840 ± 210
299.98 K, 100 kPa, x1 = 0.097	6.9 ± 1.6
299.98 K, 100 kPa, x1 = 0.3748	156 ± 38
300.27 K, 100 kPa, x1 = 1	1538 ± 390
301.16 K, 100 kPa, x1 = 0.692	530 ± 130
302.34 K, 100 kPa, x1 = 0.3748	135 ± 33
303.51 K, 100 kPa, x1 = 0.3748	126 ± 30
303.51 K, 100 kPa, x1 = 0.7994	580 ± 140
304.72 K, 100 kPa, x1 = 1	1206 ± 300
305.86 K, 100 kPa, x1 = 0.3748	109 ± 26
305.86 K, 100 kPa, x1 = 0.4948	200 ± 48
305.86 K, 100 kPa, x1 = 0.8993	680 ± 170
307.04 K, 100 kPa, x1 = 0.3748	103 ± 25
307.04 K, 100 kPa, x1 = 0.5975	254 ± 62
307.04 K, 100 kPa, x1 = 0.8993	630 ± 150
313 K, 101.3 kPa, x1 = 0.1233	5.7 ± 1.1
323.2 K, 100 kPa, x1 = 1	337 ± 85
333 K, 101.3 kPa, x1 = 0.05881	2.27 ± 0.46
